Measurements taken from patent US20190030018A1 (Celgene Corporation, priority 2017, published 2019).

System: 563 solid tumor cell lines
Experiment: Luminex assay in PRISM, 5 days treatment (AUC)
Assay type: cell-based
Design: AUC: scale not given here
Procedure: The AUC values provided in Table 80 below were calculated based on the Median Fluorescent Intensity values, the primary read out of the Luminex assay in PRISM. The following parameters were used in this assay: • 8 point dose was used in triplicate • max concentration of 10 μM was used with serial 4-fold dilutions (low of […]) • 563 adherent cell lines in 23 pools. • treatment duration was 5 days.

In the case of `O=C1CCC(N2Cc3cc(CNC(=O)C(F)(F)c4ccc(Cl)cc4)ccc3C2=O)C(=O)N1` (stereo not shown) [Compound 1, 2-(4-chlorophenyl)-N-((2-(2,6-dioxopiperidin-3-yl)-1-oxoisoindolin-5-yl)methyl)-2,2-difluoroacetamide], the “activity on solid tumor cell lines (AUC)” value (8 point dose, max 10 μM, 5 days) was “highest activity on lung, intestine, stomach, liver, pancreatic and kidney cell lines”, the AUC (A101D_SKIN) was 0.821 and the AUC (A172_CENTRAL_NERVOUS_SYSTEM) was 0.314. The AUC (A204_SOFT_TISSUE) was 0.156, the AUC (A253_SALIVARY_GLAND) was 0.864 and the AUC (A375_SKIN) was 0.795. For the same molecule, the AUC (A498_KIDNEY) was 0.845, the AUC (A549_LUNG) was 0.857 and the AUC (A673_BONE) was 0.885. For the same molecule, the AUC (A704_KIDNEY) was 0.823, the AUC (A2058_SKIN) was 0.818 and the AUC (A2780_OVARY) was 0.485. The AUC (ABC1_LUNG) was 0.591, the AUC (ACCMESO1_PLEURA) was 0.631 and the AUC (ACHN_KIDNEY) was 0.912. For the same molecule, the AUC (AGS_STOMACH) was 0.865, the AUC (AM38_CENTRAL_NERVOUS_SYSTEM) was 0.543 and the AUC (AN3CA_ENDOMETRIUM) was 0.861. The AUC (BCPAP_THYROID) was 0.782, the AUC (BECKER_CENTRAL_NERVOUS_SYSTEM) was 0.874 and the AUC (BEN_LUNG) was 0.826. It also gave an AUC (BFTC909_KIDNEY) of 0.843, an AUC (BHT101_THYROID) of 0.858 and an AUC (BHY_UPPER_AERODIGESTIVE_TRACT) of 0.405. The AUC (BICR6_UPPER_AERODIGESTIVE_TRACT) was 0.801, the AUC (BICR16_UPPER_AERODIGESTIVE_TRACT) was 0.585 and the AUC (BICR18_UPPER_AERODIGESTIVE_TRACT) was 0.845. For the same molecule, the AUC (BICR56_UPPER_AERODIGESTIVE_TRACT) was 0.984, the AUC (BT474_BREAST) was 0.801 and the AUC (BT549_BREAST) was 0.242. It also gave an AUC (BXPC3_PANCREAS) of 0.916, an AUC (C32_SKIN) of 0.881 and an AUC (CADOES1_BONE) of 0.566. It also gave an AUC (CAKI2_KIDNEY) of 0.867, an AUC (CAL12T_LUNG) of 0.366 and an AUC (CAL27_UPPER_AERODIGESTIVE_TRACT) of 0.812. The AUC (CAL29_URINARY_TRACT) was 0.831, the AUC (CAL51_BREAST) was 0.589 and the AUC (CAL54_KIDNEY) was 0.679. For the same molecule, the AUC (CAL62_THYROID) was 0.083, the AUC (CAL78_BONE) was 0.798 and the AUC (CAL120_BREAST) was 0.812. For the same molecule, the AUC (CALU6_LUNG) was 0.794, the AUC (CAMA1_BREAST) was 0.589 and the AUC (CAPAN2_PANCREAS) was 0.835. For the same molecule, the AUC (CBAGPN_BONE) was 0.236, the AUC (CCK81_LARGE_INTESTINE) was 0.021 and the AUC (CFPAC1_PANCREAS) was 0.872. For the same molecule, the AUC (CHL1_SKIN) was 0.330, the AUC (CHLA10_BONE) was 0.933 and the AUC (CJM_SKIN) was 0.215. For the same molecule, the AUC (CL11_LARGE_INTESTINE) was 0.849, the AUC (CL34_LARGE_INTESTINE) was 0.604 and the AUC (COLO678_LARGE_INTESTINE) was 0.811. It also gave an AUC (COLO679_SKIN) of 0.830, an AUC (COLO680N_OESOPHAGUS) of 0.863 and an AUC (COLO741_SKIN) of 0.411. The AUC (COLO792_SKIN) was 0.629, the AUC (COLO800_SKIN) was 0.810 and the AUC (COLO829_SKIN) was 0.748. It also gave an AUC (CORL23_LUNG) of 0.879, an AUC (CORL105_LUNG) of 0.824 and an AUC (COV318_OVARY) of 0.883. For the same molecule, the AUC (COV362_OVARY) was 0.824, the AUC (COV644_OVARY) was 0.994 and the AUC (DANG_PANCREAS) was 0.793. It also gave an AUC (DAOY_CENTRAL_NERVOUS_SYSTEM) of 0.928, an AUC (DBTRG05MG_CENTRAL_NERVOUS_SYSTEM) of 0.795 and an AUC (DETROIT562_UPPER_AERODIGESTIVE_TRACT) of 0.855. The AUC (DMS53_LUNG) was 0.903, the AUC (DMS273_LUNG) was 0.771 and the AUC (DU145_PROSTATE) was 0.878. It also gave an AUC (DV90_LUNG) of 0.174, an AUC (EBC1_LUNG) of 0.960 and an AUC (ECGI10_OESOPHAGUS) of 0.877. It also gave an AUC (EFE184_ENDOMETRIUM) of 0.679, an AUC (EFM19_BREAST) of 0.917 and an AUC (EFM192A_BREAST) of 0.766. It also gave an AUC (EFO21_OVARY) of 0.843, an AUC (EFO27_OVARY) of 0.534 and an AUC (EKVX_LUNG) of 0.837. The AUC (EN_ENDOMETRIUM) was 0.831, the AUC (ES2_OVARY) was 0.801 and the AUC (ESS1_ENDOMETRIUM) was 0.512. It also gave an AUC (EW8_BONE) of 0.985, an AUC (EWS502_BONE) of 0.875 and an AUC (FADU_UPPER_AERODIGESTIVE_TRACT) of 0.859. For the same molecule, the AUC (FTC133_THYROID) was 0.833, the AUC (FTC238_THYROID) was 0.8424 and the AUC (G292CLONEA141B1_BONE) was 0.2746. It also gave an AUC (G402_SOFT_TISSUE) of 0.8297, an AUC (GAMG_CENTRAL_NERVOUS_SYSTEM) of 0.365 and an AUC (GB1_CENTRAL_NERVOUS_SYSTEM) of 0.8359. For the same molecule, the AUC (GCIY_STOMACH) was 0.8662, the AUC (GI1_CENTRAL_NERVOUS_SYSTEM) was 0.5874 and the AUC (GMS10_CENTRAL_NERVOUS_SYSTEM) was 0.4048. The AUC (GOS3_CENTRAL_NERVOUS_SYSTEM) was 0.5047, the AUC (GP2D_LARGE_INTESTINE) was 0.796 and the AUC (HARA_LUNG) was 0.7964. The AUC (HCC15_LUNG) was 0.9583, the AUC (HCC38_BREAST) was 0.4873 and the AUC (HCC44_LUNG) was 0.906. For the same molecule, the AUC (HCC56_LARGE_INTESTINE) was 0.849, the AUC (HCC78_LUNG) was 0.793 and the AUC (HCC366_LUNG) was 0.3183. It also gave an AUC (HCC827_LUNG) of 0.516, an AUC (HCC1143_BREAST) of 0.8133 and an AUC (HCC1195_LUNG) of 0.9004. The AUC (HCC1359_LUNG) was 0.875, the AUC (HCC1395_BREAST) was 0.9508 and the AUC (HCC1419_BREAST) was 0.8487. For the same molecule, the AUC (HCC1428_BREAST) was 0.9167, the AUC (HCC1438_LUNG) was 0.9701 and the AUC (HCC1806_BREAST) was 0.8775. The AUC (HCC1937_BREAST) was 0.579.
